Where a name gives a salt, the structure may show the parent alone. Read-outs that look alike come from different tables or passages of the source.
Assays:
Assay type in all cases: physicochemical
[1] = Hygroscopicity (water uptake / exposure to humidity)
Protocol: (§1) The crystalline di-hydrochloride monohydrate salt of 4-(2-((1R,2R)-2-hydroxycyclohexylamino)benzothiazol-6-yloxy)-N-methylpicolinamide (Form A) exists primarily as a crystalline material. Form A is hygroscopic, having a maximum water uptake of about 10.79% at 25° C. and up to 95% relative humidity (RH)). […] Form A has a very low aqueous solubility at neutral pH (about 0.006 mg/mL), however it has a high aqueous solubility at low pH (about >20 mg/mL).

[2] = Intrinsic dissolution rate; settings: pH 4.5; Form A versus Form B
[3] = Aqueous solubility; settings: aqueous medium, aqueous buffer
Protocol: as §1

[4] = Bulk physical and chemical stability (degradation under stress conditions)
Description: Five hydrated forms of the di-hydrochloride salt were identified, which included the crystalline di-hydrochloride monohydrate salt of 4-(2-((1R,2R)-2-hydroxycyclohexylamino)benzothiazol-6-yloxy)-N-methylpicolinamide (Form A) discussed herein.

## CNC(=O)c1cc(Oc2ccc3nc(N[C@@H]4CCCC[C@H]4O)sc3c2)ccn1 [Form A, Di-Hydrochloride Monohydrate Salt of 4-(2-((1R,2R)-2-hydroxycyclohexylamino)benzothiazol-6-yloxy)-N-methylpicolinamide]
[1]; 25° C., up to 95% relative humidity (RH)
  maximum water uptake: about 10.79%
[1]; exposure to humidity
  phase change on exposure to humidity: little to no phase change
[2]
  intrinsic dissolution rate relative to mono-hydrochloride salt (Form B): about 150 fold
[3]; low pH, read-out: aqueous solubility at low pH
  solubility: > 20000 µg/mL
[3]; neutral pH, read-out: aqueous solubility at neutral pH
  solubility: ~6 µg/mL
[4]; ambient conditions
  thermodynamic stability compared to the other four hydrated forms: more thermodynamically stable hydrate
[4]; one to two weeks at 50° C., 75% relative humidity
  degradation of bulk drug substance: less than 1%
[4]; one to two weeks at 50° C., ambient relative humidity
  degradation of bulk drug substance: less than 1%
[4]; one week at 80° C., ambient relative humidity
  degradation of bulk drug substance: less than 1%

Source: patent US10934273B2, “Crystalline forms of 4-(2-((1R,2R)-2-hydroxycyclohexylamino)benzothiazol-6-yloxy)-N-methylpicolinamide” (Novartis AG, priority 2016, dated 2021)
